Source: PubChem BioAssay (NCI)
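Here, GI50 denotes the concentration required for 50% inhibition of growth. TGI: concentration producing complete growth inhibition.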

What was measured:
Assay in all cases: growth of human tumour cells (NCI), 384-well format
[1] = tested on: 786-0 renal
[2] = tested on: A498 renal
[3] = tested on: ACHN renal
[4] = tested on: CAKI-1 renal
[5] = tested on: COLO 205 colon
[6] = tested on: DU-145 prostate
[7] = tested on: HCC-2998 colon
[8] = tested on: HCT-116 colon
[9] = tested on: HCT-15 colon
[10] = tested on: HL-60(TB) leukemia
[11] = tested on: HOP-62 NSCLC
[12] = tested on: HOP-92 NSCLC
[13] = tested on: HS 578T breast
[14] = tested on: HT29 colon
[15] = tested on: IGROV1 ovarian
[16] = tested on: K-562 leukemia
[17] = tested on: KM12 colon
[18] = tested on: LOX IMVI melanoma
[19] = tested on: M14 melanoma
[20] = tested on: MALME-3M melanoma
[21] = tested on: MDA-MB-231 breast
[22] = tested on: MDA-MB-435 melanoma
[23] = tested on: NCI-H226 lung
[24] = tested on: NCI-H23 lung
[25] = tested on: NCI-H322M lung
[26] = tested on: NCI-H460 NSCLC
[27] = tested on: NCI-H522 lung
[28] = tested on: NCI/ADR-RES ovarian
[29] = tested on: OVCAR-4 ovarian
[30] = tested on: OVCAR-5 ovarian
[31] = tested on: OVCAR-8 ovarian
[32] = tested on: PC-3 prostate
[33] = tested on: RPMI-8226 leukemia
[34] = tested on: RXF 393 renal
[35] = tested on: SF-268 CNS
[36] = tested on: SK-MEL-2 melanoma
[37] = tested on: SK-MEL-28 melanoma
[38] = tested on: SK-MEL-5 melanoma
[39] = tested on: SN12C renal
[40] = tested on: SNB-75 CNS
[41] = tested on: SR leukemia
[42] = tested on: SW-620 colon
[43] = tested on: TK-10 renal
[44] = tested on: U251 glioblastoma
[45] = tested on: UACC-257 melanoma
[46] = tested on: UACC-62 melanoma
[47] = tested on: UO-31 renal

## COCCOc1cc(F)c2c(Nc3ccc(NC(=O)Cn4cc(C(C)C)nn4)cc3)ncnc2c1
[1]
  GI50: 49.7 µM
  TGI: > 100 µM
[2]
  GI50: 79.9 µM
  TGI: > 100 µM
[3]
  GI50: > 100 µM
  TGI: > 100 µM
[4]
  GI50: 38.4 µM
  TGI: > 100 µM
[5]
  GI50: 40.8 µM
  TGI: > 100 µM
[6]
  GI50: 75 µM
  TGI: > 100 µM
[7]
  GI50: 29.3 µM
  TGI: > 100 µM
[8]
  GI50: 48.7 µM
  TGI: > 100 µM
[9]
  GI50: 24.9 µM
  TGI: > 100 µM
[10]
  GI50: 17.3 µM
  TGI: 37.9 µM
[11]
  GI50: 18.1 µM
  TGI: > 100 µM
[12]
  GI50: 30.7 µM
  TGI: > 100 µM
[13]
  GI50: 12.2 µM
  TGI: 82.3 µM
[14]
  GI50: > 100 µM
  TGI: > 100 µM
[15]
  GI50: 53.5 µM
  TGI: > 100 µM
[16]
  GI50: 3.25 µM
  TGI: > 100 µM
[17]
  GI50: 0.56 µM
  TGI: > 100 µM
[18]
  GI50: 43.6 µM
  TGI: > 100 µM
[19]
  GI50: 59 µM
  TGI: > 100 µM
[20]
  GI50: 25 µM
  TGI: > 100 µM
[21]
  GI50: 30.5 µM
  TGI: > 100 µM
[22]
  GI50: 62.1 µM
  TGI: > 100 µM
[23]
  GI50: 7.16 µM
  TGI: > 100 µM
[24]
  GI50: 35.6 µM
  TGI: > 100 µM
[25]
  GI50: > 100 µM
  TGI: > 100 µM
[26]
  GI50: 31.7 µM
  TGI: > 100 µM
[27]
  GI50: 18.1 µM
  TGI: 92.3 µM
[28]
  GI50: > 100 µM
  TGI: > 100 µM
[29]
  GI50: > 100 µM
  TGI: > 100 µM
[30]
  GI50: 87.8 µM
  TGI: > 100 µM
[31]
  GI50: 26.7 µM
  TGI: > 100 µM
[32]
  GI50: 62.9 µM
  TGI: > 100 µM
[33]
  GI50: 5.06 µM
  TGI: 34.3 µM
[34]
  GI50: 39.8 µM
  TGI: > 100 µM
[35]
  GI50: 43.1 µM
  TGI: > 100 µM
[36]
  GI50: 66.7 µM
  TGI: > 100 µM
[37]
  GI50: > 100 µM
  TGI: > 100 µM
[38]
  GI50: 11.2 µM
  TGI: > 100 µM
[39]
  GI50: 12.9 µM
  TGI: > 100 µM
[40]
  GI50: 11.9 µM
  TGI: > 100 µM
[41]
  GI50: 10.1 µM
  TGI: 41.5 µM
[42]
  GI50: 52 µM
  TGI: > 100 µM
[43]
  GI50: 29.8 µM
  TGI: > 100 µM
[44]
  GI50: 57.9 µM
  TGI: > 100 µM
[45]
  GI50: 60.6 µM
  TGI: > 100 µM
[46]
  GI50: 31.1 µM
  TGI: > 100 µM
[47]
  GI50: 72 µM
  TGI: > 100 µM
